For nine molecules, TGI and GI50 results are on record in PubChem BioAssay (NCI).

“And” between values parts separate entries of the source, which are not always exact repeats. Identical values can stand only once.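 Values below derive from 48-hour exposures of cells grown in 96-well plates, with endpoints linearly interpolated between the two concentrations bracketing the appropriate inhibition level. GI50 = concentration required for 50% inhibition of growth. TGI marks complete inhibition of growth.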 Where only a bound is given, the exact number is not on record here.

Assay in all cases: DTP human tumour cell line panel, 48 h
The subject of assay [1] is SNB-75 CNS.
Assay [2] concerns ACHN renal.
For assay [3], the system named is HOP-92 NSCLC.
Assay [4] deals with HCT-15 colon.
For assay [5], the system named is M14 melanoma.
In assay [6] the test system is MOLT-4 leukemia.
For assay [7], the system named is UACC-62 melanoma.
Assay [8] deals with CCRF-CEM leukemia.
Assay [9] deals with 786-0 renal.
Assay [10] deals with SW-620 colon.

For orientation: TGI means the concentration at which net growth stops. `O=c1[nH]c2cc(Cl)ccc2nc1/C(=N\O)C(O)c1ccc(Cl)cc1Cl` (stereo unspecified): the TGI in assay [1], in assay [2], in assay [3], in [4], in assay [5] and in [6] was > 100 µM in each case. In addition, the total growth inhibition concentration (TGI) in [7], in assay [8], in [9] and in assay [10] was > 100 µM in each case.

As a reminder, the GI50 is the concentration giving 50% growth inhibition. Regarding `Cc1cn2c(/C=C3\C(=O)N(C)c4ccc(O)cc43)c(C)nc2s1`, the GI50 in assay [1] was 2.86 µM; in assay [2], 13.3 µM; in assay [3], 31.7 µM; in [4], 4.16 µM; in assay [5] it was 3.43 µM; in assay [6], 4.71 µM. The GI50 in assay [7] is 7.61 µM; in [8], 6 µM; in [9], 6.41 µM; in assay [10], 3.67 µM. Further, the TGI in assay [1] was 10.2 µM; in assay [2], > 100 µM; in assay [3], > 100 µM; in assay [4] it was > 100 µM; in assay [5] it was 25.1 µM; in assay [6] it was 34.7 µM. Also, the total growth inhibition concentration (TGI) in assay [7], in [8], in assay [9] and in assay [10] was > 100 µM throughout.

On to `CC1=NN(C(=O)CC(=O)N(C(=O)c2ccccc2Cl)c2ccc(C)cc2)C(=O)C1N=Nc1ccc([N+](=O)[O-])cc1` (stereo unspecified), for which the TGI in [1] was > 72 µM; in [2], > 100 µM; in [3], > 78.5 µM; in assay [4], > 63.5 µM; in assay [5], > 100 µM; in [6] it was > 100 µM. Also, the TGI in assay [7] was > 53.7 µM; in [8] it was > 70.7 µM; in assay [9] it was > 68.5 µM; in assay [10], > 53.6 µM.

In the case of `COc1cccc(-n2c3nc(=O)n(C)c(=O)c-3nc3ccccc32)c1`, the TGI in [1] is 76.2 µM; in assay [2], 47.3 µM; in [3] it was 72.5 µM; in [4], 66.3 µM; in assay [5], 27.7 µM; in assay [6] it was 40.6 µM. The TGI in assay [7] is 19.5 µM; in [8], 79.1 µM; in [9] it was > 100 µM; in assay [10] it was 51.6 µM.

With `N.N.N.N.[Cl-].[Co+3].[N-]=[N+]=[N-].[N-]=[N+]=[N-]`, the GI50 in [1] was > 100 µM; in assay [2] it was 50.5 µM; in assay [3], > 100 µM; in [4], > 100 µM; in assay [5], > 100 µM; in assay [6], 38.6 µM. Also, the GI50 was > 100 µM in [7], 91.6 µM in assay [8], > 100 µM in [9] and > 100 µM in assay [10]. The total growth inhibition concentration (TGI) in assay [1], in [2], in assay [3], in assay [4], in [5] and in assay [6] was > 100 µM in each case. The TGI in [7], in assay [8], in assay [9] and in [10] was > 100 µM throughout.

With `CCOC(=O)c1c[nH]c2oc(/C=N/N3CC(CN4CCOCC4)OC3=O)cc2c1=O` (stereo unspecified), the TGI in [1], in assay [2], in assay [3], in [4], in [5] and in [6] was > 100 µM each time. Further, the total growth inhibition concentration (TGI) in assay [7], in assay [8], in assay [9] and in assay [10] was > 100 µM throughout.

`C[C@@]12CCCc3coc(c31)C(=O)c1cc3c(cc12)C(=O)C=CC3=O`: the GI50 in assay [1], in assay [2], in assay [3], in assay [4], in [5] and in assay [6] was > 1 µM each time. In addition, the GI50 in assay [7], in assay [9] and in assay [10] was > 1 µM in each case. Besides, the TGI in assay [1] is > 1 µM and 38.2 µM; in [2], > 1 µM and 25.4 µM; in assay [3], > 1 µM and 14.6 µM; in assay [4], > 1 µM and 36.7 µM; in assay [5], > 1 µM and 29.7 µM; in [6], > 1 µM and 6.16 µM. For the same molecule, the concentration for total growth inhibition (TGI) was > 1 µM and 32.1 µM in [7]; 7.74 µM in [8]; > 1 µM and 30.7 µM in assay [9]; > 1 µM and 20.1 µM in assay [10].

For `C[C@]12CC[C@H](O)C[C@H]1CC[C@@H]1[C@@H]2CC[C@]2(C)[C@@H](C3=CC(=O)OC3)CC[C@]12O`, the total growth inhibition concentration (TGI) in assay [1] was found to be 2.12 µM; in assay [2], 0.825 µM; in assay [3], 1.1 µM; in assay [4] it was 0.316 µM; in assay [5], 1.6 µM; in [6], 0.0537 µM. Also, the TGI in [7] was 1.09 µM; in assay [8], 44.4 µM; in assay [9], 0.142 µM; in assay [10] it was 1.57 µM. For the same molecule, the GI50 in assay [7] is 0.32 µM; in assay [9], 0.0337 µM.

For the molecule `O=C(Nc1ccc(CO)cc1)c1coc2ccccc2c1=O`, the GI50 in assay [1] is > 100 µM; in [2], > 100 µM; in assay [3], 29.4 µM; in assay [4] it was > 100 µM; in assay [5], > 100 µM; in assay [6], > 100 µM. Moreover, the GI50 in assay [7], in assay [8], in assay [9] and in [10] was > 100 µM each time. Further, the total growth inhibition concentration (TGI) in assay [1], in [2], in assay [3], in [4], in assay [5] and in assay [6] was > 100 µM in each case. In addition, the total growth inhibition concentration (TGI) in assay [7], in assay [8], in assay [9] and in assay [10] was > 100 µM each time.
